For 20 compounds, IC50 results are on record in patent US20250197406A1, “INDAZOLES AS HEMATOPOIETIC PROGENITOR KINASE 1 (HPK1) INHIBITORS AND METHODS FOR USING SAME” (1ST Biotherapeutics, Inc., priority 2022, published 2025).

Where a name gives a salt, the structure may show the parent alone.

This test deals with recombinant human HPK1 (Homo sapiens (Human), UniProt Q92918). Kind of test: HPK1 kinase assay (Promega ADP-Glo kinase assay). The note with it: In vitro activity against HPK1, 5 ng HPK1, MBP substrate, ATP 25 μM, 30° C. 40 minutes. Type of test: biochemical. Summed up:
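ADP-Glo luminescence assay with 5 ng recombinant human HPK1, MBP substrate and ATP (added as 25 µM solution) in Tris pH 7.5, 20 mM MgCl2, BSA, DTT, 0.5% DMSO. Reaction ran 40 min at 30 °C. IC50 was fitted from percent inhibition over an inhibitor concentration range.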
On the technique in general: ADP-Glo first removes unused ATP, then detects ADP through luciferase.

Sequence of recombinant human HPK1 (Q92918 whole entry): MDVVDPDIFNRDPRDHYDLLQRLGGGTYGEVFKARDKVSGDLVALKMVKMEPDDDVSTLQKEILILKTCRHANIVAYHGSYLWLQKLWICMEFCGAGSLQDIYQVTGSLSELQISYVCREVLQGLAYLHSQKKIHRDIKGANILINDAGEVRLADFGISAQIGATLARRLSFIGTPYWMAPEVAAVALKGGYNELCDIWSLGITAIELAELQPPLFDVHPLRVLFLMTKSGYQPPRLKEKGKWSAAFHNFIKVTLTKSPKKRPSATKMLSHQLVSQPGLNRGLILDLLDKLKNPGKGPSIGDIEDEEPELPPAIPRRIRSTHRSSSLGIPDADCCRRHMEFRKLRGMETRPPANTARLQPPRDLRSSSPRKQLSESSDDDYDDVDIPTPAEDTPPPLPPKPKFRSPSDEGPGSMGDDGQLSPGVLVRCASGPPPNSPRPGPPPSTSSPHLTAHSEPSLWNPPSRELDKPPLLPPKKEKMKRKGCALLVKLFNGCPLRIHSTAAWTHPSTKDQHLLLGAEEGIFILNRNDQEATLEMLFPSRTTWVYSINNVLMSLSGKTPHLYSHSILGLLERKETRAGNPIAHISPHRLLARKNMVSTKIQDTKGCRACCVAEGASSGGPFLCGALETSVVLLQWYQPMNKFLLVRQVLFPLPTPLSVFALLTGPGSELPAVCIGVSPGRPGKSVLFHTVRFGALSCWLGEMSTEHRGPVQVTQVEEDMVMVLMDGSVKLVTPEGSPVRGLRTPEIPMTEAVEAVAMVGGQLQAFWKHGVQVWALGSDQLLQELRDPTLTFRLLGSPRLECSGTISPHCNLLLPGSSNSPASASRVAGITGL

Regarding `CC(C)Nc1c(F)c(Cl)c(-c2cn3cc(NC(=O)C4CCCO4)nc3cn2)c2cn[nH]c12` (centres unmarked) [Example 111, N-(6-(5-chloro-6-fluoro-7-(isopropylamino)-1H-indazol-4-yl)imidazo[1,2-a]pyrazin-2-yl)tetrahydrofuran-2-carboxamide], the 50% inhibitory concentration (IC50) (in general, the midpoint of a concentration-inhibition curve) fell in the range of 101 to 500 nM. As to `CC(NC=O)c1c(F)c(C(F)F)c(-c2cn3cc(NC(=O)[C@@H]4C[C@@H]4F)nc3cn2)c2cn[nH]c12` (stereo partly drawn) [Example 75, (1S,2S)-N-(6-(5-(difluoromethyl)-6-fluoro-7-(1-formamidoethyl)-1H-indazol-4-yl)imidazo[1,2-a]pyrazin-2-yl)-2-fluorocyclopropane-1-carboxamide], the IC50 is less than 100 nM. As to `CC(=O)Nc1cn2cc(-c3c(Cl)c(F)c(C(C)N4CC(O)C4)c4[nH]ncc34)ncc2n1` (centres unmarked) [Example 161, N-(6-(5-chloro-6-fluoro-7-(1-(3-hydroxyazetidin-1-yl)ethyl)-1H-indazol-4-yl)imidazo[1,2-a]pyrazin-2-yl)acetamide], the IC50 lay in the range of 501 to 1000 nM. For the compound `CC(C)Nc1c(F)c(Cl)c(-c2cn3cc(NC(=O)C(C)C)nc3cn2)c2cn[nH]c12` [Example 81, N-(6-(5-chloro-6-fluoro-7-(isopropylamino)-1H-indazol-4-yl)imidazo[1,2-a]pyrazin-2-yl)isobutyramide], the IC50 was less than 100 nM. Then `CC(C)Nc1c(F)c(Cl)c(-c2cn3cc(NC(=O)C4CC4)nc3cn2)c2cn[nH]c12` [Example 46, N-(6-(5-chloro-6-fluoro-7-(isopropylamino)-1H-indazol-4-yl)imidazo[1,2-a]pyrazin-2-yl)cyclopropanecarboxamide], with less than 100 nM; and `CC(C)Nc1c(F)c(Cl)c(-c2cn3cc(NC(=O)C4CCNC4)nc3cn2)c2cn[nH]c12` (centres unmarked) [Example 74, N-(6-(5-chloro-6-fluoro-7-(isopropylamino)-1H-indazol-4-yl)imidazo[1,2-a]pyrazin-2-yl)pyrrolidine-3-carboxamide], with less than 100 nM; and `CC(=O)Nc1cn2cc(-c3c(Cl)c(F)c([C@@H](C)N[S@+]([O-])C(C)(C)C)c4[nH]ncc34)ncc2n1` [Example 135, N-(6-(7-((R)-1-(((R)-tert-butylsulfinyl)amino)ethyl)-5-chloro-6-fluoro-1H-indazol-4-yl)imidazo[1,2-a]pyrazin-2-yl)acetamide], with less than 100 nM. Consider `CC(=O)Nc1cn2cc(-c3c(Cl)c(F)c(OC4CNC4)c4[nH]ncc34)ncc2n1` [Example 147, N-(6-(7-(azetidin-3-yloxy)-5-chloro-6-fluoro-1H-indazol-4-yl)imidazo[1,2-a]pyrazin-2-yl)acetamide formate], for which the IC50 fell in the range of 501 to 1000 nM.

In the case of `CC(C)Nc1c(F)c(Cl)c(-c2cn3cc(NC(=O)N4CCNCC4)nc3cn2)c2cn[nH]c12` [Example 120, N-(6-(5-chloro-6-fluoro-7-(isopropylamino)-1H-indazol-4-yl)imidazo[1,2-a]pyrazin-2-yl)piperazine-1-carboxamide], the IC50 is less than 100 nM. On to `CC(=O)Nc1cn2cc(-c3c(Cl)c(F)c([C@H](C)N[S@@+]([O-])C(C)(C)C)c4[nH]ncc34)ncc2n1` [Example 134, N-(6-(7-((S)-1-(((S)-tert-butylsulfinyl)amino)ethyl)-5-chloro-6-fluoro-1H-indazol-4-yl)imidazo[1,2-a]pyrazin-2-yl)acetamide], for which the IC50 lay within 101 to 500 nM. Regarding `CC(CO)c1c(F)c(C(F)(F)F)c(-c2cn3cc(NC(=O)[C@@H]4C[C@@H]4F)nc3cn2)c2cn[nH]c12` (stereo partly drawn) [Example 85, (1S,2S)-2-fluoro-N-(6-(6-fluoro-7-(1-hydroxypropan-2-yl)-5-(trifluoromethyl)-1H-indazol-4-yl)imidazo[1,2-a]pyrazin-2-yl)cyclopropane-1-carboxamide], the 50% inhibitory concentration (IC50) is less than 100 nM. Then `CC(C)Nc1c(F)c(Cl)c(-c2cn3cc(NC(=O)N4CCN(C)CC4)nc3cn2)c2cn[nH]c12` [Example 92, N-(6-(5-chloro-6-fluoro-7-(isopropylamino)-1H-indazol-4-yl)imidazo[1,2-a]pyrazin-2-yl)-4-methylpiperazine-1-carboxamide formate], with less than 100 nM.

`CC(=O)Nc1cn2cc(-c3c(Cl)c(F)c(CN4CC(C)(O)C4)c4[nH]ncc34)ncc2n1` [Example 157, N-(6-(5-chloro-6-fluoro-7-((3-hydroxy-3-methylazetidin-1-yl)methyl)-1H-indazol-4-yl)imidazo[1,2-a]pyrazin-2-yl)acetamide]: the IC50 is 501 to 1000 nM.

For the compound `Cc1c(F)c(C2=CC(=O)CC2)c2[nH]ncc2c1-c1cn2cc(NC(=O)[C@@H]3C[C@@H]3F)nc2cn1` [Example 7, (1S,2S)-2-fluoro-N-(6-(6-fluoro-5-methyl-7-(3-oxocyclopent-1-en-1-yl)-1H-indazol-4-yl)imidazo[1,2-a]pyrazin-2-yl)cyclopropane-1-carboxamide], the 50% inhibitory concentration (IC50) lay within 101 to 500 nM. Take `CC(C)Nc1c(F)c(Cl)c(-c2cn3cc(NC(=O)C4CCOC4)nc3cn2)c2cn[nH]c12` (centres unmarked) [Example 125, N-(6-(5-chloro-6-fluoro-7-(isopropylamino)-1H-indazol-4-yl)imidazo[1,2-a]pyrazin-2-yl)tetrahydrofuran-3-carboxamide]: the IC50 is less than 100 nM. Regarding `CC(N[S+]([O-])C(C)(C)C)c1c(F)c(Cl)c(-c2cn3cc(NC(=O)[C@@H]4C[C@@H]4F)nc3cn2)c2cn[nH]c12` (stereo partly drawn) [Example 86, (1S,2S)-N-(6-(7-(1-((tert-butylsulfinyl)amino)ethyl)-5-chloro-6-fluoro-1H-indazol-4-yl)imidazo[1,2-a]pyrazin-2-yl)-2-fluorocyclopropane-1-carboxamide], the IC50 is less than 100 nM.

Turning to `CC(=O)N(C)c1cn2cc(-c3c(Cl)c(F)c(NC(C)C)c4[nH]ncc34)ncc2n1` [Example 102, N-(6-(5-chloro-6-fluoro-7-(isopropylamino)-1H-indazol-4-yl)imidazo[1,2-a]pyrazin-2-yl)-N-methylacetamide], the IC50 lay within 501 to 1000 nM. `CCC(=O)Nc1cn2cc(-c3c(Cl)c(F)c(NC(C)C)c4[nH]ncc34)ncc2n1` [Example 61, N-(6-(5-chloro-6-fluoro-7-(isopropylamino)-1H-indazol-4-yl)imidazo[1,2-a]pyrazin-2-yl)propionamide]: the IC50 was less than 100 nM. Turning to `CC(N)c1c(F)c(C(F)(F)F)c(-c2cn3cc(NC(=O)[C@@H]4C[C@@H]4F)nc3cn2)c2cn[nH]c12` (stereo partly drawn) [Example 45, (1S,2S)-N-(6-(7-(1-aminoethyl)-6-fluoro-5-(trifluoromethyl)-1H-indazol-4-yl)imidazo[1,2-a]pyrazin-2-yl)-2-fluorocyclopropane-1-carboxamide], the 50% inhibitory concentration (IC50) is 501 to 1000 nM. Take `COC1CCCC1c1c(F)c(C)c(-c2cn3cc(NC(=O)[C@@H]4C[C@@H]4F)nc3cn2)c2cn[nH]c12` (stereo partly drawn) [Example 16, (1S,2S)-2-fluoro-N-(6-(6-fluoro-7-(2-methoxycyclopentyl)-5-methyl-1H-indazol-4-yl)imidazo[1,2-a]pyrazin-2-yl)cyclopropane-1-carboxamide]: the IC50 was less than 100 nM.
